According to US20230218559A1, “Compositions and Methods for Treating Aging and Age-Related Diseases and Symptoms” (The Regents of the University of California, priority 2014, published 2023):

Columns and labels:
U87 cells [1] = assay: Assay for ATP levels in U87 cells; format: cell-based, human; conditions: mitochondrial oxidative phosphorylation conditions, 2 hours
Method: For 2-HG experiments, U87 cells were seeded in 96-well plates at 2×10^4 cells per well and treated with indicated compound for 2 hours in triplicate. ATP levels were measured using the CellTiter-Glo luminescent ATP assay (Promega, G7572); luminescence was read using Analyst HT (Molecular Devices). […] Statistical analysis was performed using GraphPad Prism (unpaired t-test).

DBA2/J female mice = assay: Isoproterenol-induced hypertrophy and heart failure in mice; format: in vivo, mouse; conditions: ISO plus octyl α-KG, 3 weeks, echocardiography; ISO+octanol 49.2%±1.9
Method: Hypertrophy and heart failure were induced by chronic infusion of isoproterenol for 3 weeks at a dose of 30 μg per gram bodyweight per day using osmotic mini-pumps (Alzet, model 1004). DBA2/J female mice at 8 weeks old were used for this study. […] ISO-induced cardiac hypertrophy and cardiomyopathy were determined at the end of experiment by assessing heart size and heart to body weight ratio.
More importantly, cardiac output was assessed and the cardiac ejection fractions were determined by echocardiography. The cardiac EF for the basal levels before the treatment is 55.1%±2.6 (n=14).

AMPK = AMPK (T172) phosphorylation by Western blotting; format: cell-based, human; conditions: WI-38 cells; higher concentration of octyl α-KG
Method: Western blotting was performed with specific antibodies against P-AMPK T172 (Cell Signaling Technology, 2535S) and AMPK (Cell Signaling Technology, 2603S). […] Number of GFP::LGG-1 containing puncta was quantitated using ImageJ. Bars indicate the mean. […] HEK-293 (Panel d) or HeLa (Panel e) cells were lysed in M-PER buffer (Thermo Scientific, 78501) with the addition of protease inhibitors (Roche, 11836153001) and phosphatase inhibitors (50 mM NaF, 10 mM β-glycerophosphate, 5 mM sodium pyrophosphate, 2 mM Na3VO4). Protein concentration of the lysate was measured by BCA Protein Assay kit (Pierce, 23227). […] Pronase (Roche, 10165921001) digestions were performed for 20 minutes at room temperature, and stopped by adding SDS loading buffer and immediately heating at 95° C. for 5 minutes (for Panel d) or 70° C. for 10 minutes (for Panel e). Samples were subjected to SDS-PAGE on 4-12% Bis-Tris gradient gel (Invitrogen, NP0322BOX) and Western blotted with specific antibodies against ATP5B (Santa Cruz, sc58618), mTOR (Cell Signaling Technology, 2972), or GAPDH (Ambion, AM4300). ImageJ was used to quantify the mTOR/GAPDH and ATP5B/GAPDH ratios.

U87 cells [2] = assay: Cell growth and viability assays in U87 cells; format: cell-based, human
Method: IDH1(R132H) mutant or IDH1(WT) expressing U87 cells were as reported (Li, et al. Neuro Oncol 15, 57-68). […] All the cells were cultured at 37° C. and 5% CO2. Cells were transfected with indicated siRNA using Thermo Scientific DharmaFECT Transfection Reagent 1 by following the manufacturer's instructions.
Cells were seeded in 12-well plates and after overnight incubation were treated with indicated concentrations of each compound. After harvesting, cells were stained by Acridine Orange (AO) and DAPI. Cell number and viability were measured based on AO and DAPI fluorescence measured by NC3000 (Chemometec) following the manufacturer's instructions.

Complex V = molecular target: T1, Complex V (Bos taurus, UniProt P00829); assay: Complex V activity assay (MitoTox OXPHOS kit); format: biochemical, bovine
T1 construct: from bovine heart mitochondria; purchased Abcam ab109907; host or cells: bovine heart mitochondria
Method: Complex V activity was assayed using the MitoTox OXPHOS Complex V Activity Kit (Abcam, ab109907). Vehicle (H2O) or α-KG was mixed with the enzyme prior to the addition of phospholipids. […] Relative Complex V activity was compared to vehicle. Oligomycin (Sigma, O4876) was used as a positive control for the assay.

WI-38 cells = assay: Assay for ATP levels in normal human fibroblasts; format: cell-based; conditions: 2 hours
Method: Normal human diploid fibroblast WI-38 (ATCC, CCL-75) cells were seeded in 96-well plates at 2×10^4 cells per well. […] ATP levels were measured using the CellTiter-Glo luminescent ATP assay (Promega, G7572); luminescence was read using Analyst HT (Molecular Devices). In parallel, identically treated cells were lysed in M-PER (Thermo Scientific, 78501) to obtain protein concentration by BCA Protein Assay kit (Pierce, 23223). ATP levels were normalized to protein content. Statistical analysis was performed using GraphPad Prism (unpaired t-test).

[3] = molecular target: mitochondrial ATP synthase (Complex V) (Mus musculus, UniProt P56480); assay: Mice fed octyl α-KG in chow; heart mitochondria OCR
Method: The mice were sacrificed, hearts harvested, and mitochondria isolated. The oxygen consumption rate (OCR) was measured using a Seahorse XF-24 Analyzer (Seahorse Bioscience).

[4] = test system: neonatal rat cardiomyocytes; assay: Isoproterenol/phenylephrine-induced hypertrophy in isolated neonatal cardiomyocytes; format: cell-based; conditions: 200 μM
Method: Cardiomyocytes of neonatal rats were isolated by collagenase digestion and cultured overnight in DMEM containing 10% fetal calf serum (FCS), and then culture medium was changed to serum-free high glucose insulin-transferrin-sodium selenite (ITS). Hypertrophy of cardiomyocytes was induced by treating the cells with 1 mM isoproterenol (ISO) or phenylephrine (PE) for 48 hours.

ATP synthase = molecular target: T2, ATP synthase (Mus musculus, UniProt P56480); assay: ATP synthase enzyme inhibition kinetics; format: biochemical
T2 construct: Mitochondria were isolated from mouse liver as described above; from tissue; host or cells: isolated mouse liver mitochondria
Method: ATP synthesis enzyme inhibition kinetic analysis was performed using isolated mitochondria. Mitochondria were isolated from mouse liver as described above. The final mitochondrial pellet was resuspended in MAS buffer supplemented with 5 mM sodium ascorbate (Sigma, A7631) and 5 mM TMPD (Sigma, T7394).
ATP synthesis was monitored by the increase in luminescence over time by a luminometer (Analyst HT, Molecular Devices). ATP synthase-independent ATP formation, derived from the oligomycin-insensitive luminescence, was subtracted as background. The initial velocity of ATP synthesis was calculated from the slope of the first 3 minutes of the reaction, before the velocity begins to decrease. Enzyme inhibition kinetics was analyzed by nonlinear regression least squares fit using GraphPad Prism.

mammalian cells = assay: Oxygen consumption rate in cells (Seahorse XF-24); format: cell-based; conditions: treated cells, 1 hour
Method: OCR measurements were made using a Seahorse XF-24 analyzer (Seahorse Bioscience) (Wu, et al. Am J Physiol Cell Physiol 292, C125-136 (2007)). […] Oxygen consumption rates were measured 3 times under basal conditions and normalized to protein concentration per well. Statistical analysis was performed using GraphPad Prism.

mTOR [5] = assay: Assay for mammalian TOR (mTOR) pathway activity; format: cell-based, human; conditions: U87 cells
Text: Specific antibodies used: P-S6K T389 (Cell Signaling Technology, 9234), S6K (Cell Signaling Technology, 9202S), P-4E-BP1 S65 (Cell Signaling Technology, 9451S), 4E-BP1 (Cell Signaling Technology, 9452S), P-AKT S473 (Cell Signaling Technology, 4060S), AKT (Cell Signaling Technology, 4691S), P-ULK1 S757 (Cell Signaling Technology, 6888), ULK1 (Cell Signaling Technology, 4773S), and GAPDH (Santa Cruz Biotechnology, 25778).

ATP-2 = molecular target: T3, ATP-2 (Caenorhabditis elegans, UniProt P46561); assay: DARTS using C. elegans lysate; format: binding; conditions: worm lysate
T3 construct: from tissue; host or cells: lysate of whole wild-type C. elegans
T3 sequence (P46561 whole entry): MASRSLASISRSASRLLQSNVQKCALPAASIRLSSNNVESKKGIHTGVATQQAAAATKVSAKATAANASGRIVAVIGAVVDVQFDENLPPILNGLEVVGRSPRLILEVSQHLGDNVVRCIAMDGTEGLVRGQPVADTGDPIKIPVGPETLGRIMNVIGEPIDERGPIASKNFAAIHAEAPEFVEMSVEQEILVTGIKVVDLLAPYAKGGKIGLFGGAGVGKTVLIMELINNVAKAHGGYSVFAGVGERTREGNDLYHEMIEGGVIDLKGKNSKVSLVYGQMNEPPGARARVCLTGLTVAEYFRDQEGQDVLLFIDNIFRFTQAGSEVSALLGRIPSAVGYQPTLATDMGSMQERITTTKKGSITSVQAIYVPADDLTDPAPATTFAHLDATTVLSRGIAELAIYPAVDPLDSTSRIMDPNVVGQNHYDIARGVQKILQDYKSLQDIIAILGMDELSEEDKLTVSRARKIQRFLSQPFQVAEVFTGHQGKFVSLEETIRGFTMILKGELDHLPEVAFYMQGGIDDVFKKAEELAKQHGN
Method: For DARTS using C. elegans (FIG. 6, Panel a), wild-type animals of various ages were grown on NGM/OP50 plates, washed 4 times with M9 buffer, and immediately placed in the −80° C. freezer. […] All steps were performed on ice or at 4° C. to help prevent premature protein degradation. TNC buffer (50 mM Tris-HCl pH 8.0, 50 mM NaCl, 10 mM CaCl2) was added to the worm lysates.

C. elegans [6] = assay: Oxygen consumption rate in living C. elegans; format: in vivo, Caenorhabditis elegans; conditions: worms, 8 mM, day 2 of adulthood
Method: OCR was assessed on day 2 of adulthood. […] Oxygen consumption rates were measured 7 times under basal conditions and normalized to the number of worms counted per well. The experiment was repeated twice. Statistical analysis was performed using Microsoft Excel (t-test, two-tailed, two-sample unequal variance).

Complex IV = test system: T4, Complex IV; assay: Complex IV activity assay (MitoTox OXPHOS kit); format: biochemical, bovine; conditions: relative to vehicle (H2O)
T4 construct: from bovine heart mitochondria; purchased Abcam ab109906; host or cells: bovine heart mitochondria
Method: Complex IV activity was assayed using the MitoTox OXPHOS Complex IV Activity Kit (Abcam, ab109906).

C. elegans [7] = assay: Assay for ATP levels in C. elegans; format: in vivo, Caenorhabditis elegans; conditions: 8 mM; day 2, P=0.969; day 8, P=0.012
Method: Assay for ATP levels in C. elegans. […] ATP levels were normalized to number of worms. Statistical analysis was performed using Microsoft Excel (t-test, two-tailed, two-sample unequal variance).

lactate dehydrogenase = assay: Coupling-enzyme control of SMP ATPase assay; format: biochemical; conditions: up to 10 mM, external ADP added
Method: (§1) The SMP ATPase activity was assayed using the Complex V Activity Buffer as above. The production of ADP is coupled to the oxidation of NADH to NAD^+ through pyruvate kinase and lactate dehydrogenase. […] The absorbance decrease of NADH at 340 nm correlates to ATPase activity.

pyruvate kinase = assay: Coupling-enzyme control of SMP ATPase assay; format: biochemical; conditions: up to 10 mM, external ADP added
Method: as §1

ATP5B = molecular target: T5, ATP5B (Homo sapiens, UniProt P06576); assay: DARTS (drug affinity responsive target stability) with Western blotting; format: binding; conditions: human cell lysates, Pronase digestion
T5 construct: HeLa cells were lysed in M-PER buffer; endogenous in cells; host or cells: HeLa (alpha-KG); U87 (2-HG)
T5 sequence (P06576 48-529): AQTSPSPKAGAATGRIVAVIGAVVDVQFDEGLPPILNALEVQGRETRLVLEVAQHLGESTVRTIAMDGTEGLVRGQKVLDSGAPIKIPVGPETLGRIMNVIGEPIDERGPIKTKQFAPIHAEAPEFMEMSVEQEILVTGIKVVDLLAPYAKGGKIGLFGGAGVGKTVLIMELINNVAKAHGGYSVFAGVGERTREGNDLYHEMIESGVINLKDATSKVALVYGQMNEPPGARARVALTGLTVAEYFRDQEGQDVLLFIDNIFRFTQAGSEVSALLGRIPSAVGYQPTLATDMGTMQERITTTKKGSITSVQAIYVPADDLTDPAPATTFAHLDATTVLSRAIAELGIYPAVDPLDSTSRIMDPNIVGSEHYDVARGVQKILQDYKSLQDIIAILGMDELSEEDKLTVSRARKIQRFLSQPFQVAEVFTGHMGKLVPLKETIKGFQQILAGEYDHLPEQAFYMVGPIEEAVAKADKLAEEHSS
Method: Target identification using DARTS was conducted in accordance with methods know in the art. […] The resulting digests were separated by SDS-PAGE and visualized using SYPRO Ruby Protein Gel Stain (Invitrogen, S12000).
GAPDH (Ambion, AM4300) was used as a negative control.
For 2-HG experiments, DARTS was performed as described above.

mTOR [8] = molecular target: T6, mTOR (Homo sapiens, UniProt P42345); assay: DARTS for TOR in HEK-293 / HeLa lysates; format: binding; conditions: HEK-293 or HeLa lysates
T6 construct: HEK-293 (Panel d) or HeLa (Panel e) cells were lysed in M-PER buffer; endogenous in cells; host or cells: HEK-293; HeLa
Text: Number of GFP::LGG-1 containing puncta was quantitated using ImageJ. Bars indicate the mean. […] ImageJ was used to quantify the mTOR/GAPDH and ATP5B/GAPDH ratios.

Compound: CCCCCCCCOC(=O)C(=O)CCC(=O)O [octyl α-KG, octyl α-ketoglutarate]
- ATP content (U87 cells [1]): decreased
- cardiac ejection fraction (DBA2/J female mice): 53.8%±2.3
- P-AMPK (T172) (AMPK): increased
- viability upon glucose starvation (U87 cells [2]; 400 μM and 800 μM): decreased
- growth rate (U87 cells [2]; glucose medium, to a lesser extent, not shown): reduced
- growth rate (U87 cells [2]; glucose-free medium, 400 μM and 800 μM): decreased growth rate
- reversibility of ATP synthase inhibition (Complex V; α-KG released from octyl α-KG, not shown): reversible
- ATP levels (WI-38 cells): reduced
- state 3 respiration of heart mitochondria ([3]; mice fed 1.5 mg/g body weight in chow for one week, versus octanol control mice): lower
- physiological or behavioral abnormality ([3]; mice, 1.5 mg/g body weight in chow, after 5 days feeding): no abnormality
- ISO- and PE-induced overexpression of ANF and BNP [4]: suppressed
- ISO-induced hypertrophy ([4]; 1 mM isoproterenol, 48 hours): completely abolished
- apparent Vmax of ATP synthase (ATP synthase; 200 μM octyl α-KG, octanol vehicle 53.9): 26.7
- mode of ATP synthase inhibition (ATP synthase; α-KG released from octyl α-KG): uncompetitive inhibition
- oxygen consumption rates (mammalian cells): Decreased
- phosphorylation of S6K (T389) (mTOR [5]): decreased
- phosphorylation of mTOR substrates (mTOR [5]): decreased

Compound: O=C(O)CCC(=O)C(=O)O [α-KG, α-ketoglutarate]
- ATP-2 protein protection from Pronase digestion (ATP-2): protection
- oxygen consumption rates (C. elegans [6]): Decreased
- activity of Complex V (Complex V; bovine heart mitochondria): inhibits
- Complex IV activity (Complex IV): does not affect
- ATP levels (C. elegans [7]): reduced
- activity of lactate dehydrogenase (lactate dehydrogenase): did not affect
- activity of pyruvate kinase (pyruvate kinase): did not affect
- binding to ATP5B by DARTS (ATP5B): binding specifically
- binding to TOR by DARTS (mTOR [8]): does not bind
